Details: Liquid, Vibrating tube method

FC(C(F)(F)F)C(F)(F)F [1,1,1,2,3,3,3-heptafluoropropane]
Details | mass density [kg/m3]
303.15 K, 31383 kPa | 1520.3
303.15 K, 31415 kPa | 1520.5
303.15 K, 31442 kPa | 1520.5
303.15 K, 31478 kPa | 1520.6
303.15 K, 31506 kPa | 1520.8
303.15 K, 31538 kPa | 1520.8
303.15 K, 31570 kPa | 1521.1
303.15 K, 31607 kPa | 1521.1
303.15 K, 31634 kPa | 1521.1
303.15 K, 31671 kPa | 1521.3
303.15 K, 31699 kPa | 1521.4
303.15 K, 31745 kPa | 1521.4
303.15 K, 31773 kPa | 1521.7
303.15 K, 31806 kPa | 1521.7
303.15 K, 31839 kPa | 1521.9
303.15 K, 31871 kPa | 1521.8
303.15 K, 31914 kPa | 1522
303.15 K, 33938 kPa | 1528.3
303.15 K, 33968 kPa | 1528.3
303.15 K, 34013 kPa | 1528.4
303.15 K, 34044 kPa | 1528.6
303.15 K, 34091 kPa | 1528.8
303.16 K, 1756 kPa | 1377.1
303.16 K, 1773 kPa | 1377.2
303.16 K, 1841 kPa | 1377.8
303.16 K, 2155 kPa | 1380.4
303.16 K, 2175 kPa | 1380.5
303.16 K, 2196 kPa | 1380.8
303.16 K, 2220 kPa | 1380.9
303.16 K, 2238 kPa | 1381
303.16 K, 2262 kPa | 1381.2
303.16 K, 2781 kPa | 1385.3
303.16 K, 2809 kPa | 1385.5
303.16 K, 2833 kPa | 1385.7
303.16 K, 2855 kPa | 1385.8
303.16 K, 2874 kPa | 1386.1
303.16 K, 2903 kPa | 1386.2
303.16 K, 2923 kPa | 1386.5
303.16 K, 2945 kPa | 1386.6
303.16 K, 2970 kPa | 1386.7
303.16 K, 3045 kPa | 1387.3
303.16 K, 3161 kPa | 1388.3
303.16 K, 3180 kPa | 1388.4
303.16 K, 3245 kPa | 1388.9
303.16 K, 3334 kPa | 1389.4
303.16 K, 4314 kPa | 1396.7
303.16 K, 4345 kPa | 1396.9
303.16 K, 4366 kPa | 1397.2
303.16 K, 4395 kPa | 1397.2
303.16 K, 4845 kPa | 1400.4
303.16 K, 9092 kPa | 1427.1
303.16 K, 9131 kPa | 1427.4
303.16 K, 9158 kPa | 1427.5
303.16 K, 9192 kPa | 1427.6
303.16 K, 9223 kPa | 1427.9
303.16 K, 20848 kPa | 1482.9
303.16 K, 20912 kPa | 1483.1
303.16 K, 20941 kPa | 1483.3
303.16 K, 20974 kPa | 1483.4
303.16 K, 21003 kPa | 1483.6
313.14 K, 2256 kPa | 1337.4
313.14 K, 2281 kPa | 1337.6
313.14 K, 2307 kPa | 1337.9
313.14 K, 2329 kPa | 1337.9
313.14 K, 2362 kPa | 1338.4
313.14 K, 2381 kPa | 1338.6
313.14 K, 2406 kPa | 1338.8
313.14 K, 2431 kPa | 1339.2
313.14 K, 2463 kPa | 1339.5
313.14 K, 2485 kPa | 1339.7
313.14 K, 2518 kPa | 1339.8
313.14 K, 2546 kPa | 1340.2
313.14 K, 2571 kPa | 1340.5
313.14 K, 2596 kPa | 1340.7
313.14 K, 2621 kPa | 1340.9
313.14 K, 2650 kPa | 1341.2
313.14 K, 2671 kPa | 1341.5
313.14 K, 3117 kPa | 1345.6
313.14 K, 3144 kPa | 1345.9
313.14 K, 3170 kPa | 1346
313.14 K, 3193 kPa | 1346.3
313.14 K, 3223 kPa | 1346.7
313.14 K, 3247 kPa | 1346.8
313.14 K, 3275 kPa | 1347
313.14 K, 4237 kPa | 1355.5
313.14 K, 4266 kPa | 1355.8
313.14 K, 4299 kPa | 1356.1
313.14 K, 4328 kPa | 1356.3
313.14 K, 4487 kPa | 1357.8
313.14 K, 4509 kPa | 1358
313.14 K, 4539 kPa | 1358.2
313.14 K, 4561 kPa | 1358.3
313.14 K, 4590 kPa | 1358.4
313.14 K, 4614 kPa | 1358.7
313.14 K, 4639 kPa | 1359
313.14 K, 4660 kPa | 1359.2
313.14 K, 4688 kPa | 1359.4
313.14 K, 4710 kPa | 1359.5
313.14 K, 5002 kPa | 1362.2
313.14 K, 6187 kPa | 1371.4
313.14 K, 6210 kPa | 1371.5
313.14 K, 6240 kPa | 1371.6
313.14 K, 6264 kPa | 1371.8
313.14 K, 6295 kPa | 1372.2
313.14 K, 6319 kPa | 1372.4
313.14 K, 6347 kPa | 1372.4
313.14 K, 6379 kPa | 1372.7
313.14 K, 8595 kPa | 1388.5
313.14 K, 12590 kPa | 1413.1
313.14 K, 13048 kPa | 1415.8
313.14 K, 13083 kPa | 1416
313.14 K, 14273 kPa | 1422.5
313.14 K, 14312 kPa | 1422.7
313.14 K, 14342 kPa | 1422.9
313.14 K, 18535 kPa | 1443.8
313.14 K, 18569 kPa | 1443.9
313.14 K, 18598 kPa | 1444.1
313.14 K, 18633 kPa | 1444.1
313.14 K, 18662 kPa | 1444.3
313.14 K, 25516 kPa | 1473.5
313.14 K, 25569 kPa | 1473.8
313.14 K, 25615 kPa | 1473.9
313.14 K, 25663 kPa | 1474
313.14 K, 25698 kPa | 1474.2
313.14 K, 25734 kPa | 1474.4
313.14 K, 25776 kPa | 1474.5
313.14 K, 25819 kPa | 1474.7
313.14 K, 25862 kPa | 1474.7
313.14 K, 25905 kPa | 1475
313.14 K, 25953 kPa | 1475.3
313.14 K, 25993 kPa | 1475.3
313.14 K, 26035 kPa | 1475.5
313.14 K, 26070 kPa | 1475.7
313.14 K, 26129 kPa | 1475.7
313.14 K, 26171 kPa | 1475.9
313.14 K, 26230 kPa | 1476.2
313.14 K, 26265 kPa | 1476.5
313.14 K, 26307 kPa | 1476.7
313.14 K, 26355 kPa | 1476.6
313.14 K, 26384 kPa | 1476.9
313.14 K, 26431 kPa | 1477
313.14 K, 26467 kPa | 1477.1
313.14 K, 26516 kPa | 1477.3
313.14 K, 26563 kPa | 1477.5
313.14 K, 26598 kPa | 1477.7
313.14 K, 26634 kPa | 1477.8
313.14 K, 26676 kPa | 1477.9
313.14 K, 26712 kPa | 1478
313.14 K, 26759 kPa | 1478.2
313.14 K, 26806 kPa | 1478.3
313.14 K, 26855 kPa | 1478.6
313.14 K, 26891 kPa | 1478.6
313.14 K, 26928 kPa | 1478.9
313.14 K, 26976 kPa | 1479
313.14 K, 27297 kPa | 1480.2
313.14 K, 27651 kPa | 1481.6
313.14 K, 27676 kPa | 1481.7
313.14 K, 27719 kPa | 1481.9
313.14 K, 27749 kPa | 1482
313.14 K, 27835 kPa | 1482.4
313.14 K, 27864 kPa | 1482.4
313.14 K, 28790 kPa | 1485.8
313.14 K, 28820 kPa | 1485.9
313.14 K, 28855 kPa | 1486.1
313.14 K, 28889 kPa | 1486.1
313.14 K, 28918 kPa | 1486.2
313.14 K, 28953 kPa | 1486.3
313.14 K, 28993 kPa | 1486.5
313.14 K, 29033 kPa | 1486.8
313.14 K, 29059 kPa | 1486.6
313.14 K, 29641 kPa | 1489
313.14 K, 29682 kPa | 1489.1
313.14 K, 29711 kPa | 1489.2
313.14 K, 29757 kPa | 1489.4
313.14 K, 29798 kPa | 1489.5
313.14 K, 29841 kPa | 1489.5
313.14 K, 29883 kPa | 1489.8
313.14 K, 29915 kPa | 1489.9
313.14 K, 29950 kPa | 1489.9
313.14 K, 29980 kPa | 1490.2
313.14 K, 30015 kPa | 1490.2
313.14 K, 30045 kPa | 1490.2
313.14 K, 30081 kPa | 1490.3
313.14 K, 30117 kPa | 1490.6
313.14 K, 30159 kPa | 1490.6
313.14 K, 30185 kPa | 1490.7
313.14 K, 30217 kPa | 1491
313.14 K, 30259 kPa | 1491.1
313.14 K, 30299 kPa | 1491.3
313.14 K, 30342 kPa | 1491.3
313.14 K, 30376 kPa | 1491.5
313.14 K, 30424 kPa | 1491.8
313.14 K, 30466 kPa | 1491.8
313.14 K, 30511 kPa | 1492
313.14 K, 30547 kPa | 1492
313.14 K, 30593 kPa | 1492.2
313.14 K, 30624 kPa | 1492.2
313.14 K, 30664 kPa | 1492.6
313.14 K, 30690 kPa | 1492.5
313.14 K, 30727 kPa | 1492.7
313.14 K, 30775 kPa | 1492.8
313.14 K, 30815 kPa | 1493
313.14 K, 30847 kPa | 1493.3
313.14 K, 30889 kPa | 1493.2
313.14 K, 30921 kPa | 1493.5
313.14 K, 30962 kPa | 1493.5

From the NIST ThermoML archive (doi:10.1021/je700260f)
